CC(CO)(CO)C(=O)O
solubility (mole fraction) (in 1,4-dioxane, 298.15 K): 0.00778
solubility (mole fraction) (in 1,4-dioxane, 303.15 K): 0.00937
solubility (mole fraction) (in 1,4-dioxane, 308.15 K): 0.0124
solubility (mole fraction) (in 1,4-dioxane, 313.15 K): 0.0147
solubility (mole fraction) (in 1,4-dioxane, 318.15 K): 0.0178
solubility (mole fraction) (in 1,4-dioxane, 323.15 K): 0.0219
solubility (mole fraction) (in 1,4-dioxane, 328.15 K): 0.0258
solubility (mole fraction) (in 1,4-dioxane, 333.15 K): 0.0334
solubility (mole fraction) (in 1,4-dioxane, 338.15 K): 0.0365
solubility (mole fraction) (in 1,4-dioxane, 343.15 K): 0.041
solubility (mole fraction) (in 1,4-dioxane, 345.15 K): 0.0442
solubility (mole fraction) (in 1,4-dioxane, 348.15 K): 0.0479
solubility (mole fraction) (in 1,4-dioxane, 350.15 K): 0.0501
solubility (mole fraction) (in 1,4-dioxane, 353.15 K): 0.0535
solubility (mole fraction) (in MIBK, 298.15 K): 0.0149
solubility (mole fraction) (in MIBK, 303.15 K): 0.0164
solubility (mole fraction) (in MIBK, 308.15 K): 0.0172
solubility (mole fraction) (in MIBK, 313.15 K): 0.0186
solubility (mole fraction) (in MIBK, 318.15 K): 0.0192
solubility (mole fraction) (in MIBK, 323.15 K): 0.0202
solubility (mole fraction) (in MIBK, 328.15 K): 0.022
solubility (mole fraction) (in MIBK, 333.15 K): 0.0244
solubility (mole fraction) (in MIBK, 338.15 K): 0.0259
solubility (mole fraction) (in MIBK, 343.15 K): 0.0274
solubility (mole fraction) (in MIBK, 348.15 K): 0.0288
solubility (mole fraction) (in MIBK, 353.15 K): 0.0296
solubility (mole fraction) (in cyclopentyl methyl ether, 298.15 K): 0.00164
solubility (mole fraction) (in cyclopentyl methyl ether, 303.15 K): 0.00194
solubility (mole fraction) (in cyclopentyl methyl ether, 308.15 K): 0.00239
solubility (mole fraction) (in cyclopentyl methyl ether, 313.15 K): 0.00276
solubility (mole fraction) (in cyclopentyl methyl ether, 318.15 K): 0.00329
solubility (mole fraction) (in cyclopentyl methyl ether, 323.15 K): 0.00366
solubility (mole fraction) (in cyclopentyl methyl ether, 328.15 K): 0.00381
solubility (mole fraction) (in cyclopentyl methyl ether, 333.15 K): 0.00433
solubility (mole fraction) (in cyclopentyl methyl ether, 338.15 K): 0.00501
solubility (mole fraction) (in cyclopentyl methyl ether, 343.15 K): 0.00598
solubility (mole fraction) (in cyclopentyl methyl ether, 348.15 K): 0.00621
solubility (mole fraction) (in cyclopentyl methyl ether, 353.15 K): 0.00906
solubility (mole fraction) (in ethyl acetate, 298.15 K): 0.00368
solubility (mole fraction) (in ethyl acetate, 303.15 K): 0.00388
solubility (mole fraction) (in ethyl acetate, 308.15 K): 0.00447
solubility (mole fraction) (in ethyl acetate, 313.15 K): 0.00507
solubility (mole fraction) (in ethyl acetate, 318.15 K): 0.00646
solubility (mole fraction) (in ethyl acetate, 323.15 K): 0.00745
solubility (mole fraction) (in ethyl acetate, 328.15 K): 0.00824
solubility (mole fraction) (in ethyl acetate, 333.15 K): 0.0124
solubility (mole fraction) (in ethyl acetate, 338.15 K): 0.0147
solubility (mole fraction) (in gamma-butyrolactone, 298.15 K): 0.00637
solubility (mole fraction) (in gamma-butyrolactone, 303.15 K): 0.00793
solubility (mole fraction) (in gamma-butyrolactone, 308.15 K): 0.00942
solubility (mole fraction) (in gamma-butyrolactone, 313.15 K): 0.012
solubility (mole fraction) (in gamma-butyrolactone, 318.15 K): 0.0148
solubility (mole fraction) (in gamma-butyrolactone, 323.15 K): 0.0187
solubility (mole fraction) (in gamma-butyrolactone, 328.15 K): 0.0214
solubility (mole fraction) (in gamma-butyrolactone, 333.15 K): 0.026
solubility (mole fraction) (in gamma-butyrolactone, 338.15 K): 0.0315
solubility (mole fraction) (in gamma-butyrolactone, 343.15 K): 0.0367
solubility (mole fraction) (in gamma-butyrolactone, 345.15 K): 0.0392
solubility (mole fraction) (in gamma-butyrolactone, 348.15 K): 0.042
solubility (mole fraction) (in gamma-butyrolactone, 350.15 K): 0.048
solubility (mole fraction) (in gamma-butyrolactone, 353.15 K): 0.0529
solubility (mole fraction) (in gamma-valerolactone, 298.15 K): 0.00643
solubility (mole fraction) (in gamma-valerolactone, 303.15 K): 0.008
solubility (mole fraction) (in gamma-valerolactone, 308.15 K): 0.00913
solubility (mole fraction) (in gamma-valerolactone, 313.15 K): 0.0107
solubility (mole fraction) (in gamma-valerolactone, 318.15 K): 0.0124
solubility (mole fraction) (in gamma-valerolactone, 323.15 K): 0.0146
solubility (mole fraction) (in gamma-valerolactone, 328.15 K): 0.0183
solubility (mole fraction) (in gamma-valerolactone, 333.15 K): 0.0218
solubility (mole fraction) (in gamma-valerolactone, 338.15 K): 0.0251
solubility (mole fraction) (in gamma-valerolactone, 343.15 K): 0.0305
solubility (mole fraction) (in gamma-valerolactone, 345.15 K): 0.0324
solubility (mole fraction) (in gamma-valerolactone, 348.15 K): 0.037
solubility (mole fraction) (in gamma-valerolactone, 350.15 K): 0.0386
solubility (mole fraction) (in gamma-valerolactone, 353.15 K): 0.0406
solubility (mole fraction) (in n-butyl acetate, 298.15 K): 0.00173
solubility (mole fraction) (in n-butyl acetate, 303.15 K): 0.00199
solubility (mole fraction) (in n-butyl acetate, 308.15 K): 0.00234
solubility (mole fraction) (in n-butyl acetate, 313.15 K): 0.00268
solubility (mole fraction) (in n-butyl acetate, 318.15 K): 0.00294
solubility (mole fraction) (in n-butyl acetate, 323.15 K): 0.00381
solubility (mole fraction) (in n-butyl acetate, 328.15 K): 0.00433
solubility (mole fraction) (in n-butyl acetate, 333.15 K): 0.00528
solubility (mole fraction) (in n-butyl acetate, 338.15 K): 0.00572
solubility (mole fraction) (in n-butyl acetate, 343.15 K): 0.00685
solubility (mole fraction) (in n-butyl acetate, 348.15 K): 0.00763
solubility (mole fraction) (in n-butyl acetate, 353.15 K): 0.00902

— BigSolDB 2.1
